Data published in ChEMBL document CHEMBL3046100, “Synthesis and anti-congestive heart failure activity of novel levosimendan analogues” (2011).

Experiments:
Type in all cases: functional, Artery
Rattus norvegicus [1] = assay: Anticongestive heart failure activity in Rattus norvegicus (rat) assessed as blood pressure at 50 mg/kg, intraduodenal measured at 5 min by tracheal intubation method (reference value: 97 +/- 3 mmHg)
Rattus norvegicus [2] = assay: Anticongestive heart failure activity in Rattus norvegicus (rat) assessed as blood pressure at 50 mg/kg, intraduodenal measured at 20 min by tracheal intubation method (reference value: 81 +/- 4 mmHg)
Rattus norvegicus [3] = assay: Anticongestive heart failure activity in Rattus norvegicus (rat) assessed as blood pressure at 50 mg/kg, intraduodenal measured at 30 min by tracheal intubation method (reference value: 88 +/- 3 mmHg)
Rattus norvegicus [4] = assay: Anticongestive heart failure activity in Rattus norvegicus (rat) assessed as blood pressure at 50 mg/kg, intraduodenal measured at 10 min by tracheal intubation method (reference value: 95 +/- 3 mmHg)
Rattus norvegicus [5] = assay: Anticongestive heart failure activity in Rattus norvegicus (rat) assessed as blood pressure at 50 mg/kg, intraduodenal measured at 15 min by tracheal intubation method (reference value: 86 +/- 3 mmHg)
Rattus norvegicus [6] = assay: Anticongestive heart failure activity in Rattus norvegicus (rat) assessed as blood pressure at 50 mg/kg, intraduodenal measured at 25 min by tracheal intubation method (reference value: 79 +/- 4 mmHg)

SMILES	Activity (Rattus norvegicus [1]) [mmHg]	Activity (Rattus norvegicus [2]) [mmHg]	Activity (Rattus norvegicus [3]) [mmHg]	Activity (Rattus norvegicus [4]) [mmHg]	Activity (Rattus norvegicus [5]) [mmHg]	Activity (Rattus norvegicus [6]) [mmHg]
COc1cc(/C=N/c2ccc(C3=NNC(=O)C[C@H]3C)cc2)cc(OC)c1OC	77	28	27	46	37	27
C[C@@H]1CC(=O)NN=C1c1ccc(/N=C/c2ccc(Cl)c(Cl)c2)cc1	52	24	25	33	25	25
C[C@@H]1CC(=O)NN=C1c1ccc(/N=C/c2ccc([N+](=O)[O-])cc2)cc1	56	29	29	35	31	28
C[C@@H]1CC(=O)NN=C1c1ccc(/N=C/c2ccc(O)c(O)c2)cc1	77	53	53	63	53	53
C[C@@H]1CC(=O)NN=C1c1ccc(/N=C/c2ccccc2O)cc1	55	26	26	28	28	26
C[C@@H]1CC(=O)NN=C1c1ccc(/N=C/c2ccc(O)cc2)cc1	80	30	30	44	32	29
C[C@@H]1CC(=O)NN=C1c1ccc(/N=C/c2cccc([N+](=O)[O-])c2)cc1	77	68	67	71	69	67
C[C@@H]1CC(=O)NN=C1c1ccc(/N=C/c2ccccc2Cl)cc1	81	34	32	68	55	34
C[C@@H]1CC(=O)NN=C1c1ccc(/N=C/c2ccccn2)cc1	52	30	29	39	30	29
C[C@@H]1CC(=O)NN=C1c1ccc(/N=C/c2ccco2)cc1	45	25	24	30	25	23
C[C@@H]1CC(=O)NN=C1c1ccc(NN=C(C#N)C#N)cc1 [LEVOSIMENDAN]	51	36	31	39	34	34
